Test results: patent US7759350B2, “Pyrimidine carboxamides” (Orchid Research Laboratories Ltd., priority 2005, dated 2010)

Key:
TNF-α [1] = experiment: LPS induced sepsis for measurement of TNF-α inhibition in mice; assay type: in vivo; conditions: 50 mg/kg bw oral; female Swiss albino mice; serum 90 minutes after LPS
Description: LPS Induced Sepsis for Measurement of TNF-α Inhibition in Mice
The LPS induced sepsis model in mice was performed as described by Les sekut et al (J Lab Clin Med 1994; 124:813-20). Female Swiss albino mice were selected with their body weights being equivalent within each group. The mice were fasted for 20 hours with free access to water. The mice were dosed orally with the test compound suspended in vehicle containing 0.5% Tween 80 in 0.25% Carboxy-methylcellulose sodium salt. The control mice were administered the vehicle alone. After 30 minutes of oral dosing, the mice were injected with 500 μg of Lipopolysaccharide (Escherichia coli, LPS: B4 from Sigma) in phosphate buffer saline solution into the intraperitoneal cavity of the mice. After 90 minutes of LPS administration, the mice were bled via retro-orbital sinus puncture. Blood samples were stored overnight at 4° C. Serum samples were collected by centrifuging the samples at 4000 rpm for 15 minutes at 4° C. Immediately the serum samples were analysed for TNF-α levels, using commercially available mouse TNF-α ELISA kit (Amersham Biosciences) and assay was performed by the manufacturer instruction.

TNF-α [2] = experiment: In vitro measurement of TNF-α in human PBMC; assay type: cell-based; conditions: at 1 μM, LPS
[3] = biological target: T1, purified recombinant COX-2 enzyme (Homo sapiens, UniProt P35354); experiment: COX-2 enzyme based assay; assay type: biochemical; conditions: Conc. 10 μM
T1 sequence (P35354 18-604): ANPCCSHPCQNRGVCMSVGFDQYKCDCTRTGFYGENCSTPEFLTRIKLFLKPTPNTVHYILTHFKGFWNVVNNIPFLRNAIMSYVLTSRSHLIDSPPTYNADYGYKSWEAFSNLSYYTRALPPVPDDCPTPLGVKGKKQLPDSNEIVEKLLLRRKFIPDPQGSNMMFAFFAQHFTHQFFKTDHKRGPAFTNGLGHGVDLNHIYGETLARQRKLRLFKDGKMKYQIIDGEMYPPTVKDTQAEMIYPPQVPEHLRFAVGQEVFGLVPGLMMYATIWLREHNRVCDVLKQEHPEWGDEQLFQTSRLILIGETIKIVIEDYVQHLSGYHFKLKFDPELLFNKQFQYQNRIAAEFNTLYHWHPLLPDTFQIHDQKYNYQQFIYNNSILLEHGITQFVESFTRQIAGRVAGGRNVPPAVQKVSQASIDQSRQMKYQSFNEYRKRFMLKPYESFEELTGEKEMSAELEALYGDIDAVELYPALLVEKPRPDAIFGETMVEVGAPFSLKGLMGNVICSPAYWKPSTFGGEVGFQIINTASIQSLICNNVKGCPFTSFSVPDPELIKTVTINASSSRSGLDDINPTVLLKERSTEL
Description: (§1) COX-1 and COX-2 Enzyme Based Assay
(§2) COX-2 enzyme based assays were carried out to check the inhibitory potential of test compounds on the production of prostaglandin by purified recombinant COX-1/COX-2 enzyme (Proc. Nat. Acad. Sci. USA, 88, 2692-2696, 1991; Clin. Immunoassay 15, 116-120, 1992) In this assay, the potential of the test compound to inhibit the production of prostaglandin either by COX-1 or COX-2 from arachidonic acid (substrate) was measured. This was an enzyme based in-vitro assay to evaluate selective COX inhibition with good reproducibility.
(§3) Arachidonic acid was converted to PGH2 (Intermediate product) by COX1/COX-2 in presence or absence of the test compound. The reaction was carried out at 37° C. and after 2 minutes it was stopped by adding 1M HCl. Intermediate products PGH2 was converted to a stable Prostanoid product PGF2α by SnCl2 reduction. The amount of PGF2α produced in the reaction was inversely proportional to the COX inhibitory potential of the test compound. The prostanoid product was quantified via enzyme immunoassay (EIA) using a broadly specific antibody that binds to all the major forms of Prostaglandin, using Cayman ELISA kit as per the procedure outlined by the manufacturer Cayman Chemicals, Ann Arbor, USA).

[4] = test system: Carrageenan induced paw edema in rat; experiment: Carrageenan induced paw edema test in rat; assay type: in vivo; conditions: 5 mg/kg oral; male wistar rats; 3 hours after carrageenan
Description: Carrageenan Induced Paw Edema Test in Rat
The carrageenan paw edema test was performed as described by Winter et al (Proc. Soc. Exp. Biol. Med, 111, 544, 1962). Male wistar rats were selected with body weights equivalent within each group. The rats were fasted for eighteen hours with free access to water. The rats were dosed orally with the test compound suspended in vehicle containing 0.25% carboxymethylcellulose and 0.5% Tween 80. The control rats were administered with vehicle alone. After an hour, the rats were injected with 0.1 ml of 1% Carrageenan solution in 0.9% saline into the sub-plantar surface of the right hind paw. Paw volume was measured using digital plethysmograph before and after 3 hours of carrageenan injection. The average of foot swelling in drug treated animals was compared with that of control animals. Anti-inflammatory activity was expressed as the percentage inhibition of edema compared with control group [Arzneim-Forsch/Drug Res., 43 (I), 1,44-50,1993; Otterness and Bliven, Laboratory Models for Testing NSAIDs, In Non-Steroidal Anti-Inflammatory Drugs, (J. Lombardino, ed. 1985)].

[5] = biological target: purified recombinant COX-1 enzyme (Homo sapiens, UniProt P23219); experiment: COX-1 enzyme based assay; assay type: biochemical; conditions: Conc. 10 μM
Description: as §1, §2, §3

Sequence of purified recombinant COX-1 enzyme (P23219 24-599): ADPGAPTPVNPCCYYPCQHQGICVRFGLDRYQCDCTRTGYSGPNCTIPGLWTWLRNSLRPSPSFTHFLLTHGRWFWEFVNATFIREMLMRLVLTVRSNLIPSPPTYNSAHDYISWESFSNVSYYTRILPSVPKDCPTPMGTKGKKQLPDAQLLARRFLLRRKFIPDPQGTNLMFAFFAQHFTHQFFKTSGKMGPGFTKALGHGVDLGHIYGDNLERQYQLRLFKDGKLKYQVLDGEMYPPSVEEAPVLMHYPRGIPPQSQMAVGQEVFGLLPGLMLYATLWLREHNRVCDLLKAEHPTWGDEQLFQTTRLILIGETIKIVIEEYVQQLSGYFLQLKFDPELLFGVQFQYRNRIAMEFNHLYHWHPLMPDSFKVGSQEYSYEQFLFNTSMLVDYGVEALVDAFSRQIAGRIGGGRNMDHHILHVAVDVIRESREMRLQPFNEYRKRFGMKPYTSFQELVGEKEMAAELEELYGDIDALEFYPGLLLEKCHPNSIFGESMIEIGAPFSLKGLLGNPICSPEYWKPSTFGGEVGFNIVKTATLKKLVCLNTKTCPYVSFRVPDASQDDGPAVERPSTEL

CNc1nc(-c2ccncc2)nc(SC)c1C(=O)Nc1ccc(OC)cc1 [Example 14, N-(4-Methoxyphenyl)-4-(methylamino)-6-(methylthio)-2-pyridin-4-ylpyrimidine-5-carboxamide]
TNF-α Inhibition (%) at 50 mg/kg bw (TNF-α [1]): 18.74%
inhibition at 1 µM (TNF-α [2]): 36.8%
inhibition at 10 µM [3]: 11.4%
Inhibition of edema (%) at 5 mg/kg [4]: 31.02%
COX-1 Inhibition (%) [5]: Not Active
